Key:
LN18 cells = assay: MTT cell viability assay, DZ325 + cercosporin (FIG. 1); assay type: cell-based, human
Procedure: FIG. 1—Cell viability of LN18 cells: Compound DZ325+cercosporin.
(§1) The efficacy of the chemiluminescent compounds DZ325 and EK297 was tested in cell cultures of human glioblastoma multiforme cell lines (U87, T98G, M059K and LN-18).
(§2) The cells were inoculated in 96-well plates and left to attach overnight at 37° C. in a 5% CO2, humidified atmosphere. Subsequently the cells were incubated with (i) the photosensitizer (cercosporin) or the photosensitizer precursor (5-ALA, for the generation of the photosensitizer PpIX); and (ii) the compound at the appropriate concentration. In the case of 5-ALA, its introduction to the cell culture preceded that of the chemiluminescent compound by 1 hour to ensure adequate PpIX production. In the case of cercosporin, it was administered at the same time as the chemiluminescent compound. […]
(§3) 24 hours from the introduction of the chemiluminescent compounds to the cells, the cell media was removed and replaced with 100 μL of media containing 0.5 mg/mL thiazolyl blue salts for the performance of a standard MTT viability assay. […] The endpoint absorbance measurement was made at 561 nm. […] The experimental cell viability of the combined treatment (photosensitizer+chemiluminescent compound) was compared to the theoretical additive treatment of the photosensitizer+chemiluminescent compound which was calculated as follows: […]

M059K cells = assay: MTT cell viability assay, DZ325 + cercosporin (FIG. 2); assay type: cell-based, human
Procedure: FIG. 2—Cell viability of M059K cells: Compound DZ325+cercosporin.
as §1, §2, §3

[1] = system: human glioblastoma multiforme cell lines (U87, T98G, M059K and LN-18); assay: MTT cell viability assay, chemiluminescent compound plus photosensitizer (FIG. 3); assay type: cell-based
Procedure: as §1
The cells were inoculated in 96-well plates and left to attach overnight at 37° C. in a 5% CO2, humidified atmosphere. Subsequently the cells were incubated with (i) the photosensitizer (cercosporin) or the photosensitizer precursor (5-ALA, for the generation of the photosensitizer PpIX); and (ii) the compound at the appropriate concentration. In the case of 5-ALA, its introduction to the cell culture preceded that of the chemiluminescent compound by 1 hour to ensure adequate PpIX production. In the case of cercosporin, it was administered at the same time as the chemiluminescent compound.
The chemiluminescent compounds were prepared as 50 mM stock solutions in DMSO (or 1-methyl-2-pyrrolidone) and diluted in cell media to their final concentrations. Cercosporin was prepared as a 4 mM solution in DMSO and appropriately diluted in cell media. 5-ALA was made to its final concentration in Optimem. In the case of the luminol-based compound (DZ325), Cu was in some cases added to the cell media in the form of CuSO4 at a final concentration of 100 μM.
24 hours from the introduction of the chemiluminescent compounds to the cells, the cell media was removed and replaced with 100 μL of media containing 0.5 mg/mL thiazolyl blue salts for the performance of a standard MTT viability assay. The MTT containing medium was left to incubate for 1 to 3 hours and then removed and replaced with 100 μL DMSO. The endpoint absorbance measurement was made at 561 nm. Media only controls were used as 100% cell viability controls. The experimental cell viability of the combined treatment (photosensitizer+chemiluminescent compound) was compared to the theoretical additive treatment of the photosensitizer+chemiluminescent compound which was calculated as follows:
In each figure, one example of synergy is highlighted. […] Calculated cell viability is determined according to the following equation (in which “PS”=photosensitizer; “CL”=chemiluminescent agent): […]

Cc1ccc(S(=O)(=O)NCCCNc2cccc3c(=O)[nH][nH]c(=O)c23)cc1 [DZ325, N-(3-((1,4-dioxo-1,2,3,4-tetrahydrophthalazin-5-yl)amino)propyl)-4-methylbenzenesulfonamide]
synergy between chemiluminescent compound and photosensitizer (LN18 cells): synergy | synergy between chemiluminescent compound and photosensitizer (M059K cells): synergy

Cc1ccc(S(=O)(=O)N2CCN(C(=O)c3cc(Br)c(OC(=O)c4c5ccccc5[n+](C)c5ccccc45)c(Br)c3)CC2)cc1.O=S(=O)([O-])C(F)(F)F [EK297, 9-((2,6-dibromo-4-(4-tosylpiperazine-1-carbonyl)phenoxy)carbonyl)-10-methylacridin-10-ium trifluoromethanesulfonate]
experimental cell viability of combined treatment ([1]; 3 μM cercosporin+400 μM EK297, MTT 24 hours, FIG. 3): 21.5% | calculated cell viability (theoretical additive) ([1]; 3 μM cercosporin+400 μM EK297, calculated from single-agent viabilities): 59.5% | synergy between chemiluminescent compound and photosensitizer ([1]; EK297 with cercosporin, experimental vs calculated viability): cytotoxic synergy | viability at 400 µM ([1]; Homo sapiens, 400 μM EK297 alone, MTT 24 hours, FIG. 3, cell line not stated, read-out: cell viability (printed as 'toxicity')): 74.5%

COc1c(CC(C)O)c2c3c(CC(C)O)c(OC)c(=O)c4c(O)cc5c(c6c(cc(O)c(c1=O)c62)OCO5)c43 (stereo not shown) [cercosporin, reference compound]
viability at 3 µM ([1]; Homo sapiens, 24 h, read-out: cell viability): 80%

— patent US20240390499A1, “METHOD” (OSLO UNIVERSITETSSYKEHUS HF, priority 2021, published 2024)
